The values that follow come from ChEMBL document CHEMBL1126429, “MDL 74147, a novel selective and soluble inhibitor of human renin. Synthesis, structure-activity relationship, species and protease selectivities” (Bioorg Med Chem Lett, 1992).

The term IC50 denotes the concentration that inhibits the measured activity by half. For orientation: Ki means a measure of affinity in units of concentration, obtained from inhibition or displacement. A low value points to tighter binding.

The target of one assay is T1, Renin (Homo sapiens, UniProt P00797).
T1 sequence (P00797 whole entry): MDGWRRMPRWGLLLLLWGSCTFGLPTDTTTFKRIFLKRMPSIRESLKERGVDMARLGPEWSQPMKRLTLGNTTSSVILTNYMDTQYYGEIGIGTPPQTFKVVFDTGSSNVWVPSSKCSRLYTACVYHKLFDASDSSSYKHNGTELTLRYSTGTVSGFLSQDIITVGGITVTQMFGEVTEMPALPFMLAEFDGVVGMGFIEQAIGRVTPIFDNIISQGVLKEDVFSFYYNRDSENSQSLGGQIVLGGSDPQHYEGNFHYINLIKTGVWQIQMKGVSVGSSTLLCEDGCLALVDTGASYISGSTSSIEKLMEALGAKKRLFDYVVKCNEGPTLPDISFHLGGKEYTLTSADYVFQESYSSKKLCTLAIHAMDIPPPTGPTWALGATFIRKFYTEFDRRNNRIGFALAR
Nature of the assay: Concentration required to inhibit human plasma renin by 50% using radio-immunoassay was determined. Format: cell-free.

A further assay addresses Chymotrypsinogen A (Bos taurus, UniProt P00766). The experiment in a line: Concentration required to inhibit the enzyme chymotrypsin.
Another assay addresses Pepsin A (Sus scrofa, UniProt P00791). Nature of the assay: Concentration required to inhibit the enzyme pepsin.

Where a SMILES comes first, the peptide text is derived from it. [ ]: non-standard residue; d: D form. The star is where a group is joined. Cha = N[C@@H](CC1CCCCC1)C(=O)O; Boc = CC(C)(C)OC(=O)*; CF3 = FC(F)(F)* Some results are limits rather than exact numbers.

Pepsin A, sequence (P00791 whole entry): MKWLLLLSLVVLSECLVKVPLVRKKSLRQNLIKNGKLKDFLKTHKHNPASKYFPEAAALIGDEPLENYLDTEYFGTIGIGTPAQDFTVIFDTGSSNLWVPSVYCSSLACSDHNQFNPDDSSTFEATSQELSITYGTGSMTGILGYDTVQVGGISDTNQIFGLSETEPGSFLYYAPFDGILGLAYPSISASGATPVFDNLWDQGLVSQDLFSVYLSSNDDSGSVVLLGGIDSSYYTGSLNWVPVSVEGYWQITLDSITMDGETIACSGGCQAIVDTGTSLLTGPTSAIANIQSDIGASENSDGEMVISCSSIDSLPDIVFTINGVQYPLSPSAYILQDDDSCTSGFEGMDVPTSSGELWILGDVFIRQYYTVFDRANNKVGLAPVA

In the case of `CCC[C@@H](C(=O)N[C@@H](CC1CCCCC1)C(=O)C(F)(F)CN)N(C)C(=O)[C@H](Cc1ccc(OC)cc1)NC(=O)CC(C)C`, it took 40 µM to reach half-maximal inhibition on Renin (IC50).
`COc1ccc(C[C@H](NC(=O)CC(C)C)C(=O)N[C@H](C)C(=O)N[C@@H](CC2CCCCC2)C(=O)C(F)(F)CN)cc1` came in with an IC50 on Renin of 27 µM.
Same read-out and setting: the value for `CCC[C@H](NC(=O)[C@H](Cc1ccc(OC)cc1)NC(=O)CC(C)C)C(=O)N[C@@H](CC1CCCCC1)C(O)C(F)(F)CN` (some centres not stated) was greater than 1 µM.
`CCC[C@H](NC(=O)[C@H](Cc1ccc(OC)cc1)NC(=O)CC(C)C)C(=O)N[C@@H](CC1CCCCC1)C(=O)C(F)(F)CN`: the Ki at Chymotrypsinogen A is 2.5 µM; on Pepsin A, 40 µM.
`COc1ccc(C[C@H](NC(=O)CC(C)C)C(=O)CCC(=O)N[C@@H](CC2CCCCC2)C(=O)C(F)(F)CN)cc1`: the IC50 against Renin turned out to be 25 µM.
The compound `CC(C)C[C@H](NC(=O)[C@H](Cc1ccccc1)NC(=O)OC(C)(C)C)C(=O)N[C@@H](CC1CCCCC1)C(=O)C(F)(F)F` (Boc-Phe-Leu-[Cha]-CF3) registered an IC50 against Renin of 0.25 µM.
